Numbers after ± are expanded uncertainties.
Assay: xn = mol fraction of the nth substance listed
Conditions: Liquid, linear displacement

In the case of `COc1cnccn1` [methoxypyrazine] + O=C=O, the mass density (294.35 K, x1 = 0.107) is reported as 802 ± 32 kg/m3, the mass density (294.55 K, x1 = 0.129) is reported as 922 ± 39 kg/m3 and the mass density (295.15 K, x1 = 0.069) is reported as 809 ± 32 kg/m3. The mass density (295.15 K, x1 = 0.919) was 1033 ± 42 kg/m3, the mass density (295.25 K, x1 = 0.015) was 726 ± 29 kg/m3 and the mass density (295.25 K, x1 = 0.039) was 780 ± 31 kg/m3. For the same molecule, the mass density (295.75 K, x1 = 0.207) was 911 ± 38 kg/m3, the mass density (295.75 K, x1 = 0.379) was 929 ± 37 kg/m3 and the mass density (296.35 K, x1 = 0.025) was 797 ± 32 kg/m3. It also gave a mass density (296.85 K, x1 = 0.232) of 981 ± 39 kg/m3, a mass density (297.15 K, x1 = 0.919) of 1109 ± 44 kg/m3 and a mass density (298.15 K, x1 = 0.379) of 934 ± 37 kg/m3. The mass density (299.55 K, x1 = 0.015) was 749 ± 30 kg/m3, the mass density (299.95 K, x1 = 0.919) was 1063 ± 43 kg/m3 and the mass density (303.35 K, x1 = 0.025) was 778 ± 31 kg/m3. The mass density (303.75 K, x1 = 0.015) was 718 ± 29 kg/m3, the mass density (304.35 K, x1 = 0.007) was 679 ± 27 kg/m3 and the mass density (305.95 K, x1 = 0.919) was 1097 ± 44 kg/m3. The mass density (306.95 K, x1 = 0.207) was 945 ± 38 kg/m3, the mass density (307.15 K, x1 = 0.069) was 843 ± 34 kg/m3 and the mass density (307.55 K, x1 = 0.129) was 920 ± 37 kg/m3. The mass density (307.95 K, x1 = 0.039) was 778 ± 31 kg/m3, the mass density (310.65 K, x1 = 0.107) was 860 ± 34 kg/m3 and the mass density (311.95 K, x1 = 0.637) was 1122 ± 45 kg/m3. For the same molecule, the mass density (312.55 K, x1 = 0.379) was 1012 ± 41 kg/m3, the mass density (313.55 K, x1 = 0.025) was 696 ± 28 kg/m3 and the mass density (314.15 K, x1 = 0.232) was 987 ± 40 kg/m3. It also gave a mass density (317.85 K, x1 = 0.919) of 1085 ± 43 kg/m3, a mass density (326.85 K, x1 = 0.129) of 864 ± 35 kg/m3 and a mass density (328.45 K, x1 = 0.207) of 906 ± 36 kg/m3. The mass density (330.65 K, x1 = 0.379) was 982 ± 39 kg/m3, the mass density (332.45 K, x1 = 0.232) was 948 ± 38 kg/m3 and the mass density (332.65 K, x1 = 0.637) was 1097 ± 44 kg/m3. It also gave a mass density (332.65 K, x1 = 0.919) of 1063 ± 43 kg/m3, a mass density (332.85 K, x1 = 0.107) of 794 ± 32 kg/m3 and a mass density (348.55 K, x1 = 0.207) of 866 ± 35 kg/m3. For the same molecule, the mass density (348.65 K, x1 = 0.379) was 958 ± 38 kg/m3, the mass density (348.95 K, x1 = 0.919) was 1050 ± 42 kg/m3 and the mass density (354.15 K, x1 = 0.232) was 902 ± 36 kg/m3. For the same molecule, the mass density (354.35 K, x1 = 0.637) was 1070 ± 43 kg/m3, the mass density (366.45 K, x1 = 0.379) was 933 ± 37 kg/m3 and the mass density (367.35 K, x1 = 0.637) was 1055 ± 43 kg/m3. It also gave a mass density (367.65 K, x1 = 0.207) of 824 ± 33 kg/m3 and a mass density (368.95 K, x1 = 0.232) of 864 ± 35 kg/m3.
